This note sets out measurements from US20260294949A1, “SUBSTITUTED BICYCLIC HETEROCYCLE COMPOUNDS, COMPOSITIONS, AND USES THEREOF” (Lakewood Amedex, Inc., priority 2023, published 2026).

What all share (type): cell-based
The subject of one test is Escherichia coli (25922). Put plainly: MIC, broth microdilution (CLSI), Escherichia coli (25922). Conditions: pH 3, 18 to 24 hours. Here is the method:
(§1) MIC testing is conducted using the broth (Mueller Hinton Broth) microdilution procedures relevant to each organism group as established by the Clinical and Laboratory Standards Institute (CLSI; 3-7). MIC plates are prepared in accordance with CLSI (3-7). To prepare the test plates, automated liquid handlers are used to conduct serial dilutions and liquid transfers. Automated liquid handlers utilized in this study include the Multidrop 384 (Labsystems, Helsinki, Finland) and the Biomek 2000 (Beckman Coulter, Fullerton CA). The solution is diluted to desired pH using 1 M Citric Acid or 1 M NaOH buffer. A standardized inoculum of each test organism is prepared per CLSI methods (3, 5-7) to equal a 0.5 McFarland standard in the appropriate media followed by an additional 1:20 dilution (1:10 for anaerobes).
(§2) The plates are then inoculated with 10 μL of the diluted 0.5 McFarland suspension using the Biomek 2000 from low to high drug concentration, resulting in a final concentration of approximately 5×10^5 CFU/mL per well. An un-inoculated plate is incubated for the purpose of assessing solubility of the drug in the test media. The plates are stacked 3 to 4 high, covered with a sterile lid on the top plate, and incubated for 18 to 24 hours according to CLSI. The MIC is recorded as the lowest concentration of respective compound that inhibited visible growth of the organism.
In general terms: In broth dilution the organism is exposed to a series of concentrations in liquid medium.

Test [1] has as its system Staphylococcus aureus (43330). Description: MIC, broth microdilution (CLSI), Staphylococcus aureus (43330). Conditions: pH 3, 18 to 24 hours. The procedure: as §1, §2
Test [2] has as its system Pseudomonas aeruginosa (27853). Description: MIC, broth microdilution (CLSI), Pseudomonas aeruginosa (27853). The note with it: pH 3, 18 to 24 hours. Here is the method: as §1, §2
In a further test the test system is Candida albicans (22972). Put plainly: MIC, broth microdilution (CLSI), Candida albicans (22972). Conditions: pH 3, 18 to 24 hours. The procedure:
as §1, §2

Test [3] relates to Pseudomonas aeruginosa (6160). Put plainly: MIC, broth microdilution (CLSI), Pseudomonas aeruginosa (6160). The note with it: pH 4-5, 18 to 24 hours. The procedure: as §1, §2
The subject of the next test is Escherichia coli (0102). Description: MIC, broth microdilution (CLSI), Escherichia coli (0102). Conditions: pH 4-5, 18 to 24 hours. The procedure:
as §1, §2

The next test concerns Escherichia coli (6260). Put plainly: MIC, broth microdilution (CLSI), Escherichia coli (6260). Conditions: pH 4-5, 18 to 24 hours. The procedure: as §1, §2
Test [4] has as its system Pseudomonas aeruginosa (0103). Description: MIC, broth microdilution (CLSI), Pseudomonas aeruginosa (0103). Conditions: pH 4-5, 18 to 24 hours. The procedure:
as §1, §2

The test system of test [5] is Pseudomonas aeruginosa (6234). Description: MIC, broth microdilution (CLSI), Pseudomonas aeruginosa (6234). The note with it: pH 4-5, 18 to 24 hours. Here is the method:
as §1, §2

The next test relates to Escherichia coli (6258). Put plainly: MIC, broth microdilution (CLSI), Escherichia coli (6258). The note with it: pH 4-5, 18 to 24 hours. Here is the method:
as §1, §2

Test [6] has as its system Pseudomonas aeruginosa (6326). Put plainly: MIC, broth microdilution (CLSI), Pseudomonas aeruginosa (6326). The note with it: pH 4-5, 18 to 24 hours. The procedure:
as §1, §2

Another test concerns Escherichia coli (6098). Description: MIC, broth microdilution (CLSI), Escherichia coli (6098). Conditions: pH 4-5, 18 to 24 hours. Here is the method: as §1, §2
The subject of test [7] is Pseudomonas aeruginosa (6328). Put plainly: MIC, broth microdilution (CLSI), Pseudomonas aeruginosa (6328). Conditions: pH 4-5, 18 to 24 hours. The procedure: as §1, §2
The subject of the next test is Escherichia coli (6259). Description: MIC, broth microdilution (CLSI), Escherichia coli (6259). The note with it: pH 4-5, 18 to 24 hours. Here is the method: as §1, §2

Regarding `CCCCOP(=O)(O)OC[C@H]1O[C@@H](n2cnc3c(N)ncnc32)C[C@@H]1O` [LAI-017, ((2R,3S,5R)-5-(6-amino-9H-purin-9-yl)-3-hydroxytetrahydrofuran-2-yl)methyl butyl hydrogen phosphate], the minimal inhibitory concentration (MIC) (usually the lowest concentration that inhibits growth of the organism) against Escherichia coli (25922) came out at 25 mg/mL; in test [1], 25 mg/mL; in [2], 5 mg/mL; in the test with Candida albicans (22972), 5 mg/mL.

`CCCCOP(=O)(O)OC[C@H]1O[C@@H](n2ncc3c(N)ncnc32)C[C@@H]1O` [LAI-018, ((2R, 3S, 5R)-5-(4-amino-1H-pyrazolo [3,4-d]pyrimidine-1-yl)-3-hydroxytetra hydrofuran-2-yl)methyl butyl hydrogen phosphate]: the MIC with Escherichia coli (25922) stood at 25 mg/mL; in [1], 25 mg/mL; in test [2] it was 25 mg/mL; in the test on Candida albicans (22972) it was 5 mg/mL.

In the case of `CCCCOP(=O)(O)OC[C@H]1O[C@@H](n2cnc3cnc(N)nc32)C[C@@H]1O` [LAI-020, ((2R,3S,5R)-5-(2-amino-9H-purin-9-yl)-3-hydroxytetrahydrofuran-2-yl)-methyl butyl hydrogen phosphate], the MIC with Escherichia coli (25922) worked out at 25 mg/mL; in [1], 25 mg/mL; in test [2], 5 mg/mL; against Candida albicans (22972), 25 mg/mL.

`CCCCOP(=O)(O)OC[C@H]1O[C@@H](n2cnc3c(=O)[nH]c(N)nc32)C[C@@H]1O` [R-4, ((2R,3S,5R)-5-(2-amino-1,9-dihydro-6H-purin-6-one-9-yl)-3-hydroxytetrahydrofuran-2-yl)-methyl butyl hydrogen phosphate]: the MIC in test [3] was 50 mg/mL; in the test on Escherichia coli (0102), 50 mg/mL; in the test with Escherichia coli (6260), 100 mg/mL; in test [4], 25 mg/mL; in test [5], 25 mg/mL.

For the compound `CCCCOP(=O)(O)OC[C@H]1O[C@@H](n2cnc3c(=O)[nH]c(N)nc32)[C@H](OC)[C@@H]1O` [R-8, ((2R,3R,4R,5R)-5-(2-amino-1,9-dihydro-6H-purin-6-one-9-yl)-4-methoxy-3-hydroxytetrahydrofuran-2-yl)-methyl butyl hydrogen phosphate], the MIC (with Escherichia coli (6258); in test [3]; in [6]; in the test on Escherichia coli (0102); against Escherichia coli (6260); in the test on Escherichia coli (6098)) was 100 mg/mL each time. In addition, the MIC is 100 mg/mL in test [7], 100 mg/mL in [4], 50 mg/mL in [5] and 100 mg/mL against Escherichia coli (6259).
